Among the data in patent US9040565B2, “1H-benzimidazole-5-carboxamides as anti-inflammatory agents” (Orexo AB, priority 2008, dated 2015) are inhibition values, retold here.

Usually inhibition stands for how much of the control response was suppressed.

This experiment addresses T1, recombinant human mPGES-1 (Homo sapiens, UniProt O14684).
T1 construct: made in house; host or cells: Rosetta E. coli (microsomal/membrane fraction)
T1 sequence (O14684 1-152): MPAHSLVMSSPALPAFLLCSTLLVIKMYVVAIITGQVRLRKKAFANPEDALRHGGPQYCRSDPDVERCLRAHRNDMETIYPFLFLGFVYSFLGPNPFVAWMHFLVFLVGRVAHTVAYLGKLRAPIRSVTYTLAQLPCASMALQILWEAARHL
Description: mPGES-1 inhibition, HTRF detection of PGE2 (Biological Test). Type of experiment: biochemical. The method, then: Microsomes from Rosetta E. coli bacteria expressing recombinant human mPGES-1 is dissolved in 0.1 M KPi pH 7.4 buffer containing 2.5 mM GSH. 50 μl of the enzyme is subsequently dispensed in a 384-well plate. 0.5 μl of the inhibitor dissolved in DMSO at is thereafter added to each well and incubated for 25 minutes at room temperature.
Subsequently, 2 μl of PGH2 dissolved in an appropriate solvent is added to each well and after one minute the acidified stop solution containing FeCl2 is added. 4 μl of the total volume is transferred to a separate plate and diluted 750-fold in two separate steps before HTRF detection of PGE2.
The HTRf detection is performed by the use of a commercially available kit from CisBio essentially according to the manufacturer's protocol. Briefly, 10 μl of the diluted sample is transferred to a white 384-well plate. 5 μl of d2 and 5 μl Eu3+-Cryptate labeled anti-PGE2 is added to each well containing samples by the use of a Multidrop. The plate is covered with a plastic self-adhesive film, centrifuged at 1200 rpm for 1 minute and subsequently stored at +4° C. over night.
After over night incubation the fluorescence is measured by the use of an appropriate microplate reader. The fluorescence of europium cryptate, and d2 are measured using the following excitation and emission wavelength, europium cryptate: λmax^ex=307 nm, λmax^em=620 nm and d2: λmax^ex=620 nm, λmax^em=665 nm), respectively. The extent of the specific FRET is measured as a ratio of the emission intensity at 665 nm vs. that at 620 nm. A standard curve using synthetic PGE2 is used to quantify the amount of PGE2 in unknown samples.
(TR-FRET usually uses a lanthanide donor and a delayed reading to cut background.)

The structures appear in SMILES notation.

On to `CN(C)CCOc1cc2[nH]c(Nc3c(Cl)cncc3Cl)nc2cc1C(=O)Nc1ccc(Br)cc1` [Example 687, 2-(3,5-Dichloro-pyridin-4-ylamino)-6-(2-dimethylamino-ethoxy)-N-(4-bromo-phenyl)-1H-benzimidazole-5-carboxamide], for which the inhibition at 10 µM was 96%.

Take `COc1cc2[nH]c(Nc3c(Cl)cncc3Cl)nc2cc1C(=O)Nc1ccc(C2CC2)cn1` [Example 684, 2-(3,5-Dichloro-pyridin-4-ylamino)-N-(5-cyclopropyl-pyridin-2-yl)-6-methoxy-1H-benzimidazole-5-carboxamide]: the inhibition at 10 µM amounted to 98%.

Take `CCOc1cc2[nH]c(Nc3c(Cl)cncc3Cl)nc2cc1C(=O)Nc1ccc(Br)cc1` [Example 695, 2-(3,5-Dichloropyridin-4-ylamino)-N-(4-bromo-phenyl)-6-ethoxy-1H-benzimidazole-6-carboxamide]: the inhibition at 10 µM amounted to 94%.

`O=C(NCc1ccccc1C(F)(F)F)c1ccc2[nH]c(Nc3c(Cl)cncc3Cl)nc2c1` [Example 493, 2-(3,5-Dichloropyridin-4-ylamino)-N-(2-trifluoromethyl-benzyl)-1H-benzimidazole-5-carboxamide]: the inhibition at 10 µM was 100%.

Turning to `CN(C)c1cc(C(F)(F)F)cc(NC(=O)c2cc3nc(Nc4c(Cl)cncc4Cl)[nH]c3cc2OCC(F)(F)F)n1` [Example 656, 2-(3,5-Dichloro-pyridin-4-yl-amino)-6-(2,2,2-trifluoroethoxy)-N-(6-dimethylamino-4-trifluoromethyl-pyridin-2-yl)-1H-benzimidazole-5-carboxamide], the inhibition at 10 µM came to 96%.

With `Cn1c(Nc2ccncc2Cl)nc2cc(C(=O)Nc3ccc(Br)cc3)ccc21` [Example 520, N-(4-Bromophenyl)-2-(3-chloropyridin-4-ylamino)-1-methyl-1H-benzimidazole-5-carboxamide], the inhibition at 10 µM is 97%.

On to `COc1cc2[nH]c(Nc3c(Cl)cncc3Cl)nc2cc1C(=O)Nc1ccc(Br)cn1` [Example 682, 2-(3,5-Dichloro-pyridin-4-ylamino)-N-(5-bromo-pyridin-2-yl)-6-methoxy-1H-benzimidazole-5-carboxamide], for which the inhibition at 10 µM came out at 99%.

Turning to `CCOc1cc2c(cc1C(=O)NCc1ncccc1C(F)(F)F)nc(Nc1c(Cl)cncc1Cl)n2C` [Example 668, 2-(3,5-Dichloropyridin-4-ylamino)-N-((3-trifluoromethyl-pyridin-2-yl)-methyl)-6-ethoxy-1-methyl-1H-benzimidazole-5-carboxamide], the inhibition at 10 µM was determined as 100%.

`Cn1c(Nc2c(Cl)cncc2Cl)nc2cc(C(=O)NCc3ccccc3C(F)(F)F)ccc21` [Example 467, 2-(3,5-Dichloropyridin-4-ylamino)-1-methyl-N-(2-trifluoromethyl-benzyl)-1H-benzimidazole-5-carboxamide]: the inhibition at 10 µM amounted to 96%.

For `CCOc1cc2[nH]c(Nc3c(Cl)cncc3Cl)nc2cc1C(=O)Nc1cc(C)cc(C(F)(F)F)n1` [Example 709], the inhibition at 10 µM worked out at 100%.

Take `CCOc1cc2c(cc1C(=O)Nc1ccc(Br)cc1)nc(Nc1c(Cl)cncc1Cl)n2CC(F)(F)F` [Example 704]: the inhibition at 10 µM was determined as 100%.

On to `O=C(Nc1ccc(Br)cc1)c1cc2nc(Nc3c(Cl)cncc3Cl)[nH]c2cc1OCCF` [Example 678, 2-(3,5-Dichloropyridin-4-ylamino)-N-(4-bromophenyl)-6-(2-fluoroethoxy)-1H-benzimidazole-5-carboxamide], for which the inhibition at 10 µM was 100%.

Take `CCOc1cc2[nH]c(Nc3c(Cl)cncc3Cl)nc2cc1C(=O)Nc1ccc(F)c(C(F)F)n1` [Example 710, 2-(3,5-Dichloropyridin-4-ylamino)-N-(5-fluoro-6-difluoromethyl-pyridin-2-yl)-6-ethoxy-1H-benzimidazole-6-carboxamide]: the inhibition at 10 µM is 98%.

In the case of `COc1cc2[nH]c(Nc3c(Cl)cncc3Cl)nc2cc1C(=O)NCc1ncccc1C1CCC1` [Example 688, 2-(3,5-Dichloro-pyridin-4-ylamino)-N-((3-cyclobutyl-pyridin-2-yl)-methyl)-6-methoxy-1H-benzimidazole-5-carboxamide], the inhibition at 10 µM came to 100%.

`Cn1c(Nc2c(Cl)cncc2Cl)nc2cc(C(=O)NCc3ccccc3C(F)(F)F)c(OC3CCOC3)cc21` (stereo not drawn) [Example 665, 2-(3,5-Dichloropyridin-4-ylamino)-N-((2-trifluoromethyl-phen-1-yl)-methyl)-6-(tetrahydrofuran-3-yl-oxy)-1-methyl-1H-benzimidazole-5-carboxamide]: the inhibition at 10 µM was determined as 99%.

Turning to `Cc1cnccc1Nc1nc2cc(C(=O)Nc3ccc(Br)cc3)ccc2n1C` [Example 567, N-(4-Bromophenyl)-1-methyl-2-(3-methylpyridin-4-ylamino)-1H-benzimidazole-5-carboxamide], the inhibition at 10 µM was 80%.

On to `CCOc1cc2[nH]c(Nc3c(Cl)cncc3Cl)nc2cc1C(=O)Nc1cc(C(F)F)c(F)cn1` [Example 655, 2-(3,5-Dichloro-pyridin-4-yl-amino)-6-ethoxy-N-(5-fluoro-4-difluoromethyl-pyridin-2-yl)-1H-benzimidazole-5-carboxamide], for which the inhibition at 10 µM stood at 100%.

Consider `CCOc1cc2c(cc1C(=O)Nc1cc(C(F)(F)F)ccn1)nc(Nc1c(Cl)cncc1Cl)n2CC(F)(F)F` [Example 705], for which the inhibition at 10 µM was 94%.

In the case of `O=C(NCc1ncccc1C(F)(F)F)c1ccc2[nH]c(Nc3c(Cl)cncc3Cl)nc2c1` [Example 565, 2-(3,5-Dichloropyridin-4-ylamino)-N-((3-trifluoromethyl-pyridin-2-yl)methyl)-1H-benzimidazole-5-carboxamide], the inhibition at 10 µM is 84%.

`CCOc1cc2[nH]c(Nc3c(Cl)cncc3Cl)nc2cc1C(=O)NCc1ncccc1Cl` [Example 693, 2-(3,5-Dichloropyridin-4-ylamino)-N-((3-chloro-pyridin-2-yl)-methyl)-6-ethoxy-1H-benzimidazole-5-carboxamide]: the inhibition at 10 µM stood at 97%.

Take `CCOc1cc2[nH]c(Nc3c(Cl)cncc3Cl)nc2cc1C(=O)NCc1ccccc1C(F)(F)F` [Example 689, 2-(3,5-Dichloropyridin-4-ylamino)-N-((2-trifluoromethyl-phen-1-yl)-methyl)-6-ethoxy-1H-benzimidazole-5-carboxamide]: the inhibition at 10 µM was determined as 100%.

In the case of `O=C(Nc1ccc(Br)cc1)c1cc2nc(Nc3c(Cl)cncc3Cl)[nH]c2cc1OC(F)F` [Example 703, 2-(3,5-Dichloropyridin-4-ylamino)-N-(4-bromo-phenyl)-6-difluoromethoxy-1H-benzimidazole-5-carboxamide], the inhibition at 10 µM came to 98%.

In the case of `CC(F)(F)c1cccc(NC(=O)c2cc3nc(Nc4c(Cl)cncc4Cl)[nH]c3cc2OCC(F)(F)F)n1` [Example 706], the inhibition at 10 µM is 100%.

Turning to `O=C(Nc1cc(C(F)F)c(F)cn1)c1cc2nc(Nc3c(Cl)cncc3Cl)[nH]c2cc1OCC(F)(F)F` [Example 699], the inhibition at 10 µM turned out to be 100%.

With `CC1(C)CCC(NC(=O)c2ccc3[nH]c(Nc4c(Cl)cncc4Cl)nc3c2)CC1` [Example 446, 2-(3,5-Dichloropyridin-4-ylamino)-N-(4,4-dimethylcyclohexyl)-1H-benzimidazole-5-carboxamide], the inhibition at 10 µM worked out at 100%.

In the case of `Cn1c(Nc2c(Cl)cncc2Cl)nc2cc(C(=O)Nc3ccc(Br)cc3)c(OC3CCOC3)cc21` (stereo not drawn) [Example 661, 2-(3,5-Dichloropyridin-4-ylamino)-N-(4-bromophenyl)-6-(tetrahydrofuran-3-yl-oxy)-1-methyl-1H-benzimidazole-5-carboxamide], the inhibition at 10 µM is 100%.

For `O=C(Nc1cccc(C(F)F)n1)c1cc2nc(Nc3c(Cl)cncc3Cl)[nH]c2cc1OCC(F)(F)F` [Example 708, 2-(3,5-Dichloropyridin-4-ylamino)-N-(6-difluoromethyl-pyridin-2-yl)-6-(2,2,2-trifluoroethoxy)-1H-benzimidazole-6-carboxamide], the inhibition at 10 µM came out at 100%.

With `CCOc1cc2[nH]c(Nc3c(Cl)cncc3Cl)nc2cc1C(=O)Nc1cccc(C(F)F)n1` [Example 698], the inhibition at 10 µM came out at 99%.

For the compound `CCOc1cc2[nH]c(Nc3c(Cl)cncc3Cl)nc2cc1C(=O)NCc1ncccc1C(F)(F)F` [Example 667, 2-(3,5-Dichloropyridin-4-ylamino)-N-((3-trifluoromethyl-pyridin-2-yl)-methyl)-6-ethoxy-1H-benzimidazole-5-carboxamide], the inhibition at 10 µM was determined as 99%.

In the case of `Cn1c(Nc2c(Cl)cncc2Cl)nc2cc(C(=O)Nc3ccc(Br)cc3)c(OCCN3CCCC3)cc21` [Example 663, 2-(3,5-Dichloropyridin-4-ylamino)-N-(4-bromophenyl)-6-(2-(pyrrolidin-1-yl)-ethoxy)-1-methyl-1H-benzimidazole-5-carboxamide], the inhibition at 10 µM came to 96%.
